{"source": "patent US11471459B2", "about": "“Compounds with enhanced anti-tumor effects” (FONDAZIONE PER L'ISTITUTO ONCOLOGICO DI RICERCA (IOR), priority 2018, dated 2022)", "key": {"[1]": {"system": "human Mantle cell lymphoma REC1 cells", "assay": "Xenograft experiment, REC1 model", "type": "in vivo", "conditions": "200 mg/Kg i.p. once per day, 5 days per week", "description": "(§1) EG-011 was dissolved in dimethyl sulphoxide (DMSO) to obtain a stock concentration of 10 mM for in vitro experiments. EG-011 was dissolved in 25% hydroxypropyl beta cyclodextrin (HP-β-CD) in water and adjusted at pH 6.0 using NaOH (0.1 N) and HCl (0.1 N) for in vivo experiments. Application volume was 4.5 mL/kg (100 mg in 4.5 mL), and mice received 200 microliters (corresponding to 200 mg/kg) though intra peritoneal i.p. injection, once per day and five days per week.\nNOD-Scid (NOD.CB17-Prkdcscid/NCrHsd) mice were purchased from Harlan Laboratory (five-six weeks of age, approximately 20 g body weight). Mice maintenance and animal experiments were performed under institutional guidelines established for the Animal Facility and with study protocols approved by the local Cantonal Veterinary Authority. Mice were subcutaneously engrafted with 15×10^6 of human Mantle cell lymphoma REC1 cells and divided into two experimental groups. Starting with tumors of 180 mm^3 volume, mice underwent treatment with single agent while controls received vehicle only. EG-011 was administered 5 days per week at the dose of 200 mg/kg (200 microliters) though i.p. injection."}, "OCI-LY-19": {"system": "OCI-LY-19", "assay": "Propidium iodide cell cycle staining", "type": "cell-based", "conditions": "OCI-LY-19, 500 and 2000 nM, 72 h", "description": "Lymphoma cells (10^6 per condition) were fixed in cold 70% ethanol (for at least 30 minutes at 4° C.), added dropwise to the cell pellet while vortexing. Cells were washed ×2 in PBS and Spin at 2000 rpm; supernatant was discarded and cells suspended in PBS (0.5 mL) and treated with Ribonuclease (50 μl of 100 μg/mL RNase). Then 200 μl of propidium iodide (50 μg/ml) were added and data acquisition was performed by using BD FACS-Canto II."}, "39 lymphoma cell lines": {"system": "39 lymphoma cell lines", "assay": "Proliferation MTT assay, median across the 39 cell lines", "type": "cell-based", "conditions": "95% C.I. 100-20000 nM, 72 h", "description": "Thirty-nine cell lines derived from activated B cell-like (ABC) (n=3) and germinal center B Cell (GCB) (n=12) diffuse large B cell lymphoma (DLBCL), mantle cell lymphoma (MCL) (n=9), chronic lymphocytic leukemia (CLL) (n=2), Hodgkin lymphoma (HL) (n=4), cutaneous T cell lymphoma (CTCL) (n=3), peripheral T cell lymphoma (PTCL) (n=1), anaplastic large T cell lymphoma (ALCL) (n=4), acute T cell leukemia (ATCL) (n=1) were cultured according to the recommended conditions. All media were supplemented with fetal bovine serum (10%), Penicillin-Streptomycin-Neomycin (˜5,000 units penicillin, 5 mg streptomycin and 10 mg neomycin/mL, Sigma) and L-glutamine (1%). […]\nCells were seeded in 96-well plates (non-tissue culture treated) at a density of 10,000 cells for all cell lines. […] Wells containing medium only were included on each plate and served as blanks for absorbance readings. […] Cells were then lysed with 25% SDS lysis buffer and absorbance was read at 570 nm using an AD340 plate reader (Beckman Coulter International SA, Switzerland). Absorbance values were expressed in percentage of proliferating cells in comparison with control cells (control corresponds to 100%).\nBinomial exact 95% confidence intervals (95% C.I.s) were calculated for median percentages. Differences in IC50 values among lymphoma subtypes were calculated using the t-Student test. […]"}, "PLL cell lines": {"system": "PLL cell lines", "assay": "Proliferation MTT assay, median per subtype", "type": "cell-based", "conditions": "PLL cell lines (n=2), 72 h"}, "MCL cell lines": {"system": "MCL cell lines", "assay": "Proliferation MTT assay, median per subtype", "type": "cell-based", "conditions": "MCL cell lines (n=9), 72 h", "description": "(§2) Thirty-nine cell lines derived from activated B cell-like (ABC) (n=3) and germinal center B Cell (GCB) (n=12) diffuse large B cell lymphoma (DLBCL), mantle cell lymphoma (MCL) (n=9), chronic lymphocytic leukemia (CLL) (n=2), Hodgkin lymphoma (HL) (n=4), cutaneous T cell lymphoma (CTCL) (n=3), peripheral T cell lymphoma (PTCL) (n=1), anaplastic large T cell lymphoma (ALCL) (n=4), acute T cell leukemia (ATCL) (n=1) were cultured according to the recommended conditions. All media were supplemented with fetal bovine serum (10%), Penicillin-Streptomycin-Neomycin (˜5,000 units penicillin, 5 mg streptomycin and 10 mg neomycin/mL, Sigma) and L-glutamine (1%).\nas §1\n(§3) Cells were seeded in 96-well plates (non-tissue culture treated) at a density of 10,000 cells for all cell lines. Each compound was dissolved in dimethyl sulphoxide (DMSO). For treatment of cells, compounds were serially diluted in the appropriate tissue culture medium, at a range of 20 mcM-78 nM following a 1:2 dilution factor and added to cells (in three replicates). Cells were incubated for 72 hours at 37° C., 5% CO2. DMSO alone was added to negative control (untreated) cells. Wells containing medium only were included on each plate and served as blanks for absorbance readings. MTT (Sigma-Aldrich Chemie GmbH, Buchs, Switzerland) was prepared as a 5 mg/ml stock in PBS and filter-sterilized. MTT solution (22 μL) was added to each well and tissue culture plates were incubated at 37° C. for 4 hours. Cells were then lysed with 25% SDS lysis buffer and absorbance was read at 570 nm using an AD340 plate reader (Beckman Coulter International SA, Switzerland). Absorbance values were expressed in percentage of proliferating cells in comparison with control cells (control corresponds to 100%).\n(§4) Binomial exact 95% confidence intervals (95% C.I.s) were calculated for median percentages. Differences in IC50 values among lymphoma subtypes were calculated using the t-Student test. Statistical significance was defined by P values of 0.05 or less."}, "[2]": {"system": "T cell lymphomas (CTCL, PTCL, ALCL) cell lines", "assay": "Proliferation MTT assay, median per subtype", "type": "cell-based", "conditions": "72 h", "description": "as §2, §1, §3, §4"}, "HL cell lines": {"system": "HL cell lines", "assay": "Proliferation MTT assay, median per subtype", "type": "cell-based", "conditions": "HL cell lines (n=4), 72 h", "description": "as §2, §1, §3, §4"}, "GCB-DLBCL cell lines": {"system": "GCB-DLBCL cell lines", "assay": "Proliferation MTT assay, median per subtype", "type": "cell-based", "conditions": "GCB-DLBCL cell lines (n=12), 72 h", "description": "as §2, §1, §3, §4"}, "ABC-DLBCL cell lines": {"system": "ABC-DLBCL cell lines", "assay": "Proliferation MTT assay, median per subtype", "type": "cell-based", "conditions": "ABC-DLBCL cell lines (n=3), 72 h", "description": "as §2, §1, §3, §4"}, "KARPAS-299": {"system": "KARPAS-299", "assay": "Proliferation MTT assay, 72 h", "type": "cell-based", "conditions": "Homo sapiens, KARPAS-299 (T Cell - ALCL), 72 h exposure", "description": "as §2, §1, §3"}, "FEPD": {"system": "FEPD", "assay": "Proliferation MTT assay, 72 h", "type": "cell-based", "conditions": "FEPD (T Cell-PTCL), 72 h exposure", "description": "as §2, §1, §3"}, "SU-DHL-6": {"system": "SU-DHL-6", "assay": "Proliferation MTT assay, 72 h", "type": "cell-based", "conditions": "Homo sapiens, SU-DHL-6 (GCB-DLBCL), 72 h exposure", "description": "as §2, §1, §3"}, "MINO": {"system": "MINO", "assay": "Proliferation MTT assay, 72 h", "type": "cell-based", "conditions": "Homo sapiens, MINO (MCL), 72 h exposure", "description": "as §2, §1, §3"}, "OCI-LY-7": {"system": "OCI-LY-7", "assay": "Proliferation MTT assay, 72 h", "type": "cell-based", "conditions": "Homo sapiens, OCI-Ly7, OCI-LY-7 (GCB-DLBCL), 72 h exposure", "description": "as §2, §1, §3"}, "L-82": {"system": "L-82", "assay": "Proliferation MTT assay, 72 h", "type": "cell-based", "conditions": "L-82 (T Cell - ALCL), 72 h exposure", "description": "as §2, §1, §3"}, "OCI-LY-3": {"system": "OCI-LY-3", "assay": "Proliferation MTT assay, 72 h", "type": "cell-based", "conditions": "Homo sapiens, OCI-Ly3, OCI-LY-3 (ABC-DLBCL), 72 h exposure", "description": "as §2, §1, §3"}, "SU-DHL-8": {"system": "SU-DHL-8", "assay": "Proliferation MTT assay, 72 h", "type": "cell-based", "conditions": "Homo sapiens, SU-DHL-8 (GCB-DLBCL), 72 h exposure", "description": "as §2, §1, §3"}, "KI-JK": {"system": "KI-JK", "assay": "Proliferation MTT assay, 72 h", "type": "cell-based", "conditions": "KI-JK (T Cell - ALCL), 72 h exposure", "description": "as §2, §1, §3"}, "H9": {"system": "H9", "assay": "Proliferation MTT assay, 72 h", "type": "cell-based", "conditions": "Homo sapiens, H9 (T Cell - CTCL), 72 h exposure", "description": "as §2, §1, §3"}, "REC1": {"system": "REC1", "assay": "Proliferation MTT assay, 72 h", "type": "cell-based", "conditions": "Homo sapiens, REC1 (MCL), 72 h exposure", "description": "as §2, §1, §3"}, "FARAGE": {"system": "FARAGE", "assay": "Proliferation MTT assay, 72 h", "type": "cell-based", "conditions": "FARAGE (GCB-DLBCL), 72 h exposure", "description": "as §2, §1, §3"}, "Z138": {"system": "Z138", "assay": "Proliferation MTT assay, 72 h", "type": "cell-based", "conditions": "Homo sapiens, Z-138, Z138 (MCL), 72 h exposure", "description": "as §2, §1, §3"}, "OCI-LY-8": {"system": "OCI-LY-8", "assay": "Proliferation MTT assay, 72 h", "type": "cell-based", "conditions": "OCI-Ly8, OCI-LY-8 (GCB-DLBCL), 72 h exposure", "description": "as §2, §1, §3"}}}
{"smiles": "C=CC(=O)N1CCCC(n2c(=O)c3ncccc3n(Cc3ccc(Oc4ccccc4)cc3)c2=O)C1", "note": "(stereo not shown) [EG-011, 1-[(4-phenoxyphenyl)methyl]-3-(1-prop-2-enoyl-3-piperidyl)pyrido[3,2-d]pyrimidine-2,4-dione]", "values": [{"measurement": "body weight of treated animals (in vivo toxicity)", "setting": "[1]", "value": "no reduction in the body weight"}, {"measurement": "tumor growth (volume) versus control", "setting": "[1]; Day 6, Day 7, Day 9, P<0.05", "value": "delayed tumor growth"}, {"measurement": "tumor weight versus control", "setting": "[1]; P<0.001 (FIG. 8)", "value": "delayed"}, {"measurement": "cells in the sub-GO phase (dead cells)", "setting": "OCI-LY-19", "value": "dose dependent increase of the cells in the sub-GO phase"}, {"measurement": "IC50", "setting": "39 lymphoma cell lines", "value": 2500, "unit": "nM"}, {"measurement": "IC50", "setting": "PLL cell lines", "value": 7500, "unit": "nM"}, {"measurement": "IC50", "setting": "MCL cell lines", "value": 1000, "unit": "nM"}, {"measurement": "IC50", "setting": "[2]", "value": 2500, "unit": "nM"}, {"measurement": "IC50", "setting": "HL cell lines", "value": 13500, "unit": "nM"}, {"measurement": "IC50", "setting": "GCB-DLBCL cell lines", "value": 550, "unit": "nM"}, {"measurement": "IC50", "setting": "ABC-DLBCL cell lines", "value": 10000, "unit": "nM"}, {"measurement": "IC50", "setting": "KARPAS-299", "value": 20000, "unit": "nM"}, {"measurement": "IC50", "setting": "FEPD", "value": 3000, "unit": "nM"}, {"measurement": "IC50", "setting": "SU-DHL-6", "value": 500, "unit": "nM"}, {"measurement": "IC50", "setting": "MINO", "value": 100, "unit": "nM"}, {"measurement": "IC50", "setting": "OCI-LY-7", "value": 5000, "unit": "nM"}, {"measurement": "IC50", "setting": "L-82", "value": 2000, "unit": "nM"}, {"measurement": "IC50", "setting": "OCI-LY-3", "value": 10000, "unit": "nM"}, {"measurement": "IC50", "setting": "SU-DHL-8", "value": 300, "unit": "nM"}, {"measurement": "IC50", "setting": "KI-JK", "value": 20000, "unit": "nM"}, {"measurement": "IC50", "setting": "H9", "value": 1000, "unit": "nM"}, {"measurement": "IC50", "setting": "REC1", "value": 100, "unit": "nM"}, {"measurement": "IC50", "setting": "FARAGE", "value": 2000, "unit": "nM"}, {"measurement": "IC50", "setting": "Z138", "value": 20000, "unit": "nM"}, {"measurement": "IC50", "setting": "OCI-LY-8", "value": 300, "unit": "nM"}]}
